One experiment concerns MRC5 cells. As to the kind of experiment: Resazurin cell viability counter-screen, EC50 determinations against mammalian cells. It is filed as cell-based, human.
For experiment [1], the system named is bloodstream forms of Trypanosoma brucei. Kind of experiment: Resazurin cell viability assay, EC50 determinations against T. brucei. It is filed as cell-based, T. b. brucei (strain 427). Background: Alamar Blue is a resazurin reagent that responds to reducing activity.
The mark [2] stands for this setting: Homo sapiens, MRC5, 72 h, read-out: EC50 vs. MRC5.
The mark [3] stands for this setting: Trypanosoma brucei, 72 h, read-out: EC50 vs. T. brucei.
[4] abbreviates: Homo sapiens, MRC5, 72 h, 3 days incubation, mean of 4 determinations weighted to standard error, read-out: EC50 vs. MRC5.
Where [5] appears, read: Trypanosoma brucei, 72 h, LOPAC hits (library screening), 3 days incubation, mean of 3 determinations weighted to standard error, read-out: EC50 vs. T. brucei.
[6] abbreviates: Trypanosoma brucei, 72 h, LOPAC hits, 3 days incubation, mean of 3 determinations weighted to standard error, read-out: EC50 vs. T. brucei.
The mark [7] stands for this setting: Trypanosoma brucei, 72 h, read-out: EC50 of standard drugs against T. brucei.
Setting [8] is: read-out: EC50 of standard drugs against T. brucei.

Structures can show the parent of a compound that is named as a salt. Where two headings read alike, the source gives them in different places.

Consider `CCn1cnc2c(Nc3cccc(Cl)c3)nc(N[C@@H]3CCCC[C@@H]3N)nc21.Cl` (relative stereo) [CGP-74514A, N^2-(cis-2-Aminocyclohexyl)-N^6-(3-chlorophenyl)-9-ethyl-9H-purine-2,6-diamine HCl], for which the Selectivity in the experiment on MRC5 cells stood at 7.1. The EC50 – broadly, the concentration giving half of the maximal effect – in the experiment with MRC5 cells (setting [2]) was found to be 1500 ± 620 nM; in experiment [1] (setting [3]) it was 210 ± 8.3 nM.

Consider `NC[C@@H]1O[C@H](C23CC4CC(CC(C4)C2)C3)Cc2c1ccc(O)c2O` (single isomer, unassigned; (-)) [A-77636 hydrochloride], for which, in experiment [1] (read-out: EC50 vs. T. brucei), the EC50 came to 2210 ± 150 nM. With `Nc1ncnc2c1nc(Sc1ccc(Cl)cc1)n2C1OC2COP(=O)(O)O[C@H]2C1O` (stereo in doubt) [8-(4-Chlorophenylthio)-cAMP sodium], in the experiment on MRC5 cells, the Selectivity came to 44. Consider `N=C(N)SCCc1cccc(CCSC(=N)N)c1` [1,3-PBIT dihydrobromide, Phenylene-1,3-bis(ethane-2-isothiourea) dihydrobromide], for which the EC50 in experiment [1] (read-out: EC50 vs. T. brucei) worked out at 1580 ± 80 nM. As to `Nc1ccn([C@H]2CC[C@@H](CO)O2)c(=O)n1` [2′,3′-Dideoxycytidine], the EC50 in experiment [1] (setting [3]) is over 10000 nM. In the case of `O=C(O)c1cc[c]([Hg][Cl])cc1` [4-Chloromercuribenzoic acid], in the experiment on MRC5 cells, the Selectivity is 27. Also, in experiment [1] (read-out: EC50 vs. T. brucei), the EC50 was determined as 690 ± 85 nM. `COc1cc2c(CCNC(C)=O)c[nH]c2cc1O` [6-Hydroxymelatonin]: the EC50 in experiment [1] (read-out: EC50 vs. T. brucei) was determined as 3310 ± 230 nM. As for `Nc1ncnc2c1nc(Sc1ccc(Cl)cc1)n2[C@H]1OC2COP(=O)(O)O[C@H]2[C@@H]1O` (stereo partly shown) [8-(4-Chlorophenylthio)-cAMP sodium], the EC50 in experiment [1] (read-out: EC50 vs. T. brucei) was 400 ± 54 nM. In turn, `CCCn1c(=O)c2[nH]c(C3CCCC3)nc2n(CCC)c1=O` [8-Cyclopentyl-1,3-dipropylxanthine] had a Selectivity in the experiment with MRC5 cells of 31. For the same compound, the EC50 in experiment [1] (setting [3]) is 530 ± 53 nM. As for `CC[C@@]1(O)C(=O)OCc2c1cc1n(c2=O)Cc2cc3ccccc3nc2-1` [(S)-(+)-Camptothecin], in the experiment with MRC5 cells, the Selectivity was 1.5. The EC50 in the experiment on MRC5 cells (read-out: EC50 vs. MRC5) is 800 ± 99 nM; in experiment [1] (read-out: EC50 vs. T. brucei) it was 530 ± 13 nM. In the experiment with MRC5 cells, `O=C1Cc2c([nH]c3ccc([N+](=O)[O-])cc23)-c2ccccc2N1` [Alsterpaullone] yielded a Selectivity of 1.3. For the same compound, the values for the concentration giving a half-maximal response (EC50) (with MRC5 cells (setting [2]); in experiment [1] (setting [3])) were 510 ± 170 nM and 400 ± 40 nM, respectively. In turn, `CC1(C)CCC2=C(O1)c1ccccc1C(=O)C2=O` [Beta-Lapachone] had a Selectivity in the experiment with MRC5 cells of 10. Also, the EC50 came out at 8600 ± 2900 nM in the experiment with MRC5 cells (setting [2]) and 850 ± 130 nM in experiment [1] (setting [3]).

`C=CCc1ccccc1OCC(O)CNC1(C)CCC(C(C)(C)NC(=O)CBr)CC1` (stereo not shown) [Bromoacetyl alprenolol menthane]: in experiment [1] (setting [3]), the half-maximal effective concentration (EC50) is 1260 ± 140 nM. Consider `NC(=O)c1cc(N2CC2)c([N+](=O)[O-])cc1[N+](=O)[O-]` [CB 1954, 5-(1-Aziridinyl)-2,4-dinitrobenzamide], for which the EC50 in experiment [1] (setting [3]) is 1080 ± 90 nM.

`Nc1nc2ccc(Cl)cc2c2nc(-c3ccco3)nn12` [CGS-15943, 9-Chloro-2-(2-furyl)[1,2,4]triazolo[1,5-c]quinazolin-5-amine]: the EC50 in experiment [1] (setting [3]) came to 1970 ± 210 nM.

For the compound `O=C(/C=C/c1ccc(O)c(O)c1)OCCc1ccccc1` [Caffeic acid phenethyl ester], in experiment [1] (setting [3]), the EC50 was 1640 ± 130 nM. In the experiment with MRC5 cells, `CNc1ccc2oc(C[C@H]3O[C@@]4(CC[C@H]3C)O[C@H]([C@H](C)C(=O)c3ccc[nH]3)[C@H](C)C[C@H]4C)nc2c1C(=O)O` [Calcimycin] yielded a Selectivity of 4.2. Also, the results for the EC50 (in the experiment with MRC5 cells (setting [2]); in experiment [1] (setting [3])) were 750 ± 140 nM and 180 ± 13 nM, respectively. For `Clc1ccc(C(c2ccc(Cl)cc2)n2cc[n+](CC(OCc3ccc(Cl)cc3Cl)c3ccc(Cl)cc3Cl)c2)cc1` (stereo not shown) [Calmidazolium chloride] the same measures were 13, 6600 ± 750 nM and 510 ± 66 nM.

For `COc1ccc2c(c[n+](C)c3c4cc5c(cc4ccc23)OCO5)c1OC` [Chelerythrine chloride], the Selectivity in the experiment on MRC5 cells was found to be 42. Also, the EC50 in the experiment on MRC5 cells (setting [4]) is 2500 ± 480 nM; in experiment [1] (setting [5]), 59 ± 5.7 nM. Regarding `CN(N=O)c1cc(O)ccc1O` [Dephostatin], in experiment [1] (setting [3]), the EC50 is over 10000 nM. As for `Cc1cc(N)c2ccccc2[n+]1CCCCCCCCCC[n+]1c(C)cc(N)c2ccccc21` [Dequalinium dichloride], in the experiment with MRC5 cells, the Selectivity stood at 140 and the “Selectivity / specificity for T. brucei over human fibroblasts” value is recorded as “greater than 100 fold”. For the same compound, in the experiment with MRC5 cells (setting [2]), the EC50 was determined as 6100 ± 1500 nM. The EC50 in experiment [1] (setting [3]) was 43 ± 8.8 nM. As to `CC(C)[C@@]1(NC(=O)[C@@H]2C[C@@H]3c4cccc5[nH]cc(c45)C[C@H]3N(C)C2)O[C@@]2(O)[C@@H]3CCCN3C(=O)[C@H](Cc3ccccc3)N2C1=O.CS(=O)(=O)O` [Dihydroergocristine methanesulfonate], the Selectivity in the experiment on MRC5 cells was 23. For the same compound, in experiment [1] (read-out: EC50 vs. T. brucei), the concentration for a half-maximal effect (EC50) is 890 ± 57 nM. Compound `c1ccc2c(c1)[I+]c1ccccc1-2` [Diphenyleneiodonium chloride] yielded a Selectivity with MRC5 cells of 5.7. Moreover, the results for the EC50 (with MRC5 cells (setting [2]); in experiment [1] (setting [3])) were 700 ± 870 nM and 120 ± 7.6 nM, respectively. On to `CCCN(CCC)CCc1ccc(O)c(O)c1` [Dipropyldopamine hydrobromide], for which the EC50 in experiment [1] (setting [3]) was found to be 1290 ± 60 nM. Consider `COc1cccc2c1C(=O)c1c(O)c3c(c(O)c1C2=O)C[C@@](O)(C(=O)CO)C[C@@H]3O[C@H]1C[C@H](N)[C@H](O)[C@H](C)O1` [Doxorubicin], for which the EC50 in the experiment on MRC5 cells (Homo sapiens, MRC5, 72 h, read-out: EC50 against MRC5 (control drug)) amounted to 85.9 ± 38.2 nM. On to `Cc1c2ccncc2c(C)c2c1[nH]c1ccccc12` [Ellipticine], for which, in the experiment with MRC5 cells, the Selectivity was 3.7. The EC50 in the experiment on MRC5 cells (setting [4]) was 1700 ± 620 nM; in experiment [1] (setting [5]) it was 460 ± 45 nM.

`O=C1Nc2ccccc2/C1=C1/Nc2ccccc2/C1=N\O` [Indirubin-3′-oxime]: the EC50 in experiment [1] (read-out: EC50 vs. T. brucei) stood at 1280 ± 90 nM.

On to `O=C1Cc2c([nH]c3ccc(Br)cc23)-c2ccccc2N1` [Kenpaullone], for which the EC50 in experiment [1] (setting [3]) turned out to be 1860 ± 270 nM. `O=C1CC[C@@]2(O)[C@H]3Cc4ccc(O)c5c4[C@@]2(CCN3CC2CC2)[C@H]1O5` [Naltrexone]: in experiment [1] (Trypanosoma brucei, read-out: EC50 of opioid receptor ligands against T. brucei), the EC50 was over 100000 nM. On to `C=C1C(=O)O[C@H]2[C@H]1CC/C(C)=C/CC[C@@]1(C)O[C@@H]21` [Parthenolide], for which, in experiment [1] (setting [6]), the EC50 turned out to be 1060 ± 80 nM.

In the case of `CCCN1CCc2cccc3c2[C@H]1Cc1ccc(O)c(O)c1-3` [R(−)-Propylnorapomorphine hydrochloride], in experiment [1] (read-out: EC50 vs. T. brucei), the EC50 stood at 1520 ± 210 nM. The same measure, in the same setting: the result for `CC1=C(/C=C/C(C)=C/C=C/C(C)=C/C(=O)Nc2ccc(O)cc2)C(C)(C)CCC1` [Retinoic acid p-hydroxyanilide] reads 2230 ± 270 nM. Consider `O=[N+]([O-])c1ccc(CSc2ncnc3c2ncn3[C@@H]2O[C@H](CO)[C@@H](O)[C@H]2O)cc1` [S-(4-Nitrobenzyl)-6-thioinosine], for which the EC50 in experiment [1] (setting [3]) was 3780 ± 550 nM. With `[N-]=[N+]=Nc1ccc(C(=O)CSC[C@H](NC(=O)CC[C@H](N)C(=O)O)C(=O)NCC(=O)O)cc1` [S-(p-Azidophenacyl)glutathione], the EC50 in experiment [1] (read-out: EC50 vs. T. brucei) is over 10000 nM.

Regarding `Cc1nc(-c2ccc(-c3ccc(C(=O)N4CCc5cc6c(cc54)C4(CCN(C)CC4)CO6)cc3)c(C)c2)no1` [SB 224289 hydrochloride, 1′-Methyl-5-([2′-methyl-4′-(5-methyl-1,2,4-oxadiazol-3-yl)biphenyl-4-yl]carbonyl)-2,3,6,7-tetrahydro-spiro(furo[2,3-f]indole-3,4′-piperidine)], the EC50 in experiment [1] (setting [6]) turned out to be 1350 ± 280 nM.

`Nc1nc(N)nc(Nc2ccc([As]3SCC(CO)S3)cc2)n1` (stereo not shown) [melarsoprol]: the EC50 in experiment [1] (setting [7]) came out at 7.52 ± 0.28 nM; in experiment [1] (setting [8]) it was 8 nM.

Consider `CC1CS(=O)(=O)CCN1/N=C/c1ccc([N+](=O)[O-])o1` (stereo not shown) [nifurtimox], for which the EC50 in experiment [1] (setting [7]) is 1800 nM; in experiment [1] (setting [8]), 1810 ± 130 nM. On to Buprenorphine, for which, in experiment [1], the “Activity against T. brucei (in words)” value was “weak activity”.

The values are drawn from PMC3025325, “Identification of a κ-opioid agonist as a potent and selective lead for drug development against human African trypanosomiasis” (Biochemical Pharmacology, 2010).
